Broadly, the AC50 is the concentration at which the activity in the assay is half-maximal.

One test addresses T1, human PAH with the R408W mutation (Homo sapiens, UniProt P00439, R408W).
T1 construct: expressed in transfected cells
T1 sequence (P00439 1-452 R408W): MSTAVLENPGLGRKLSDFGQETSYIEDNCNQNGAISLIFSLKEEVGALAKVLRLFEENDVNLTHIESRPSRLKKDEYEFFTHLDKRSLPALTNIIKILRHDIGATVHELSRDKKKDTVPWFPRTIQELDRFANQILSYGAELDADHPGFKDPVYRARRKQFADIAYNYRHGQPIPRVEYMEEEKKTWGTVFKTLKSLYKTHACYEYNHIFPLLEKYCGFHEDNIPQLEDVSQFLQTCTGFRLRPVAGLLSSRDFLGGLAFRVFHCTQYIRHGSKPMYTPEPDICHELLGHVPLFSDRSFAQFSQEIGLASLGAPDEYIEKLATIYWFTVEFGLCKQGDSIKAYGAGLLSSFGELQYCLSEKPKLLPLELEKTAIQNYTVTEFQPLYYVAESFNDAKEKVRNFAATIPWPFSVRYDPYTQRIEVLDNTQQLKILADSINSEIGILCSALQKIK
In words: Cell Based Phenylalanine Flux Assay.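 Note: Ten-point dose curve from 2-fold serial dilutions, run in duplicate at 0.5% DMSO final, tracer step used 20 µM sepiapterin and 800 µM labeled phenylalanine.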 The following applies: A375 cells expressing R408W PAH; 24 hrs with compound, then 20 μM sepiapterin and 800 μM 13C9,15N-Phenylalanine for 4 hours; 13C-Tyrosine in media by LC-MS; average where tested multiple times. On the set-up: scale not given here.
As for `COc1cccn2nc(C3c4nc[nH]c4CCN3C(=O)c3ccnn3C(C)C)cc12` (stereo not drawn), the concentration at half-maximal activity (AC50) entry is “E, E”.

The test is the same for the next values; noted with them: A375 cells expressing R408W PAH; 24 hrs with compound, then 20 μM sepiapterin and 800 μM 13C9,15N-Phenylalanine for 4 hours; 13C-Tyrosine in media by LC-MS; average where tested multiple times; read-out: AC50.
With `FC(F)c1cccn2nc([C@H]3c4nc[nH]c4CCN3c3nnc(-c4cccnc4)o3)cc12` (single isomer, unassigned), the AC50 is more than 5 µM.

Take `O=C(C1CC1)N1CCc2[nH]cnc2[C@H]1c1cc2c(F)cccn2n1` (single isomer, unassigned): the AC50 was more than 5 µM.

Regarding `FC(F)(F)c1ccc(N2CCc3[nH]cnc3C2c2cc3cccc(C(F)(F)F)n3n2)nc1` (single isomer, unassigned) [4S enantiomer of 5-(trifluoromethyl)-2-[4-[7-(trifluoromethy], the AC50 lay in the range of 1 to 5 µM.

The same test, now with this note: A375 cells expressing human R408W PAH; 24 hrs compound incubation; 13C-Tyrosine by LC-MS; average where tested multiple times; read-out: AC50.
For `Cc1cccn2nc([C@H]3c4nc[nH]c4CCN3C(=O)c3nc(C4CC4)nn3C)cc12` [Example 1059], the AC50 is more than 5 µM. Still for that read-out and setting: the value for `CC(C)(F)c1nnc(C(=O)N2CCc3[nH]cnc3[C@H]2c2cc3c(Cl)cccn3n2)o1` [Example 1109, (S)-(4-(4-chloropyrazolo [1,5-a]pyridin-2-yl)-6,7-dihydro-1H-imidazo[4,5-c]pyridin-5(4H)-yl)(5-(2-fluoropropan-2-yl)-1,3,4-oxadiazol-2-yl)methanone] was less than 0.5 µM; that for `Cc1cccn2nc([C@@H]3c4nc[nH]c4CCN3C(=O)c3oc(C4(O)CC4)nc3C(F)F)cc12` [Example 1220, (S)-(4-(difluoromethyl)-2-(1-hydroxycyclopropyl)oxazol-5-yl)(4-(4-methylpyrazolo[1,5-a]pyridin-2-yl)-6,7-dihydro-1H-imidazo[4,5-c]pyridin-5(4H)-yl)methanone] was less than 0.5 µM; that for `Cc1cccn2nc([C@H]3c4nc[nH]c4CCN3C(=O)c3nnc(-c4ccc(F)cn4)o3)cc12` [Example 874, (R)-(5-(5-fluoropyridin-2-yl)-1,3,4-oxadiazol-2-yl)(4-(4-methylpyrazolo[1,5-a]pyridin-2-yl)-6,7-dihydro-1H-imidazo[4,5-c]pyridin-5(4H)-yl)methanone] was more than 5 µM. As for `Cc1cccn2nc([C@H]3c4nc[nH]c4CCN3C(=O)c3nnc(C(C)(C)C)o3)cc12` [Example 1023, (R)-(5-(tert-butyl)-1,3,4-oxadiazol-2-yl)(4-(4-methylpyrazolo[1,5-a]pyridin-2-yl)-6,7-dihydro-1H-imidazo[4,5-c]pyridin-5(4H)-yl)methanone], the half-maximal activity concentration (AC50) was more than 5 µM. On the same count and under the same terms, under `Cc1ccn2nc([C@H]3c4nc[nH]c4CCN3C(=O)c3cnco3)cc2c1` [Example 1184, (R)-(4-(5-methylpyrazolo [1,5-a]pyridin-2-yl)-6,7-dihydro-1H-imidazo[4,5-c]pyridin-5(4H)-yl)(oxazol-5-yl)methanone] stands 0.5 to 1 µM; under `C[C@H](O)c1nc(C(F)F)c(C(=O)N2CCc3[nH]cnc3[C@@H]2c2cc3c(F)cccn3n2)o1` [Example 713, (4-(difluoromethyl)-2-((S)-1-hydroxyethyl)oxazol-5-yl)((R)-4-(4-fluoropyrazolo [1,5-a]pyridin-2-yl)-6,7-dihydro-1H-imidazo[4,5-c]pyridin-5(4H)-yl)methanone], more than 5 µM. As for `N#Cc1ncoc1C(=O)N1CCc2[nH]cnc2[C@@H]1c1cc2ccccn2n1` (single isomer, unassigned) [Example 641], the AC50 is more than 5 µM. Same read-out and setting: under `Cc1ncoc1C(=O)N1CCc2[nH]cnc2[C@H]1c1cc2cccc(C(F)(F)F)n2n1` [Example 1198] stands 0.5 to 1 µM; under `CC(C)(C)c1nnc(C(=O)N2CCc3[nH]cnc3[C@@H]2c2cc3ccc(F)cn3n2)o1` [Example 1125, (R)-(5-(tert-butyl)-1,3,4-oxadiazol-2-yl)(4-(6-fluoropyrazolo[1,5-a]pyridin-2-yl)-6,7-dihydro-1H-imidazo[4,5-c]pyridin-5(4H)-yl)methanone], 1 to 5 µM.

The test is the same for the next values; noted with them: A375 cells expressing human R408W PAH; 24 hrs with compound, then sepiapterin and 13C9,15N-Phenylalanine for 4 hours; 13C-Tyrosine by LC-MS; average where tested multiple times; read-out: AC50.
For `Cc1cccn2nc([C@H]3c4nc[nH]c4CCN3c3nnc(C4(C)CC4)o3)cc12` [Example 2188, (R)-2-(1-methylcyclopropyl)-5-(4-(4-methylpyrazolo[1,5-a]pyridin-2-yl)-1,4,6,7-tetrahydro-5H-imidazo[4,5-c]pyridin-5-yl)-1,3,4-oxadiazole], the AC50 is more than 5 µM. Take `Cn1cc(-c2nc(C3CC3)c(C(=O)N3CCc4[nH]cnc4[C@@H]3c3cc4c(C(F)(F)F)cccn4n3)o2)cn1` [Example 2117, (R)-(4-cyclopropyl-2-(1-methyl-1H-pyrazol-4-yl)oxazol-5-yl)(4-(4-(trifluoromethyl)pyrazolo[1,5-a]pyridin-2-yl)-1,4,6,7-tetrahydro-5H-imidazo[4,5-c]pyridin-5-yl)methanone]: the concentration at half-maximal activity (AC50) lay within 1 to 5 µM. Still for that read-out and setting: the value for `Cc1cccc(-c2nnc(N3CCc4[nH]cnc4[C@@H]3c3cc4c(C)cccn4n3)o2)n1` [Example 2344] was more than 5 µM; that for `FC(F)Oc1cccn2nc([C@@H]3c4nc[nH]c4CCN3c3cnccn3)cc12` [Example 2319, (S)-4-(4-(difluoromethoxy)pyrazolo[1,5-a]pyridin-2-yl)-5-(pyrazin-2-yl)-4,5,6,7-tetrahydro-1H-imidazo[4,5-c]pyridine] was less than 0.5 µM. The same measure, in the same setting: the value for `O=C(c1cnc(-c2cnccn2)o1)N1CCc2[nH]cnc2[C@@H]1c1cc2c(C(F)F)cccn2n1` [Example 2243] was more than 5 µM; that for `O=C(c1nnc(C2CC(F)(F)C2)o1)N1CCc2[nH]cnc2[C@@H]1c1cc2c(Cl)cccn2n1` [Example 1586, (R)-(4-(4-chloropyrazolo [1,5-a]pyridin-2-yl)-6,7-dihydro-1H-imidazo [4,5-c]pyridin-5(4H)-yl)(5-(3,3-difluorocyclobutyl)-1,3,4-oxadiazol-2-yl)methanone] was 1 to 5 µM; that for `Cc1cccn2nc([C@H]3c4nc[nH]c4CCN3C(=O)c3nc4ccccc4o3)cc12` [Example 2021, (R)-benzo[d]oxazol-2-yl (4-(4-methylpyrazolo[1,5-a]pyridin-2-yl)-1,4,6,7-tetrahydro-5H-imidazo[4,5-c]pyridin-5-yl)methanone] was more than 5 µM. In the case of `Cc1cccn2nc([C@@H]3c4nc[nH]c4CCN3c3ccccn3)cc12` [Example 2127, (S)-4-(4-methylpyrazolo [1,5-a]pyridin-2-yl)-5-(pyridin-2-yl)-4,5,6,7-tetrahydro-1H-imidazo[4,5-c]pyridine], the AC50 is less than 0.5 µM.

As to `Cc1cccn2nc([C@@H]3c4nc[nH]c4CCN3C(=O)c3cnc(C(C)(C)F)o3)cc12` [Example 1959, (S)-(2-(2-fluoropropan-2-yl)oxazol-5-yl)(4-(4-methylpyrazolo[1,5-a]pyridin-2-yl)-1,4,6,7-tetrahydro-5H-imidazo[4,5-c]pyridin-5-yl)methanone], the half-maximal activity concentration (AC50) is less than 0.5 µM. Regarding `Cc1cccc2cc([C@H]3c4nc[nH]c4CCN3c3nnc(-c4ccccn4)o3)nn12` [Example 1641, (R)-2-(4-(7-methylpyrazolo [1,5-a]pyridin-2-yl)-6,7-dihydro-1H-imidazo[4,5-c]pyridin-5(4H)-yl)-5-(pyridin-2-yl)-1,3,4-oxadiazole], the AC50 was more than 5 µM.

On to `O=C(c1ocnc1C1CC1)N1CCc2[nH]cnc2[C@H]1c1cc2c(C(F)F)cccn2n1` [Example 2039, (S)-(4-cyclopropyloxazol-5-yl)(4-(4-(difluoromethyl)pyrazolo [1,5-a]pyridin-2-yl)-1,4,6,7-tetrahydro-5H-imidazo[4,5-c]pyridin-5-yl)methanone], for which the AC50 was less than 0.5 µM. Turning to `O=C(c1nnc(-c2ccccn2)o1)N1CCc2[nH]cnc2[C@H]1c1cc2c(C3CC3)cccn2n1` [Example 1897, (S)-(4-(4-cyclopropylpyrazolo [1,5-a]pyridin-2-yl)-1,4,6,7-tetrahydro-5H-imidazo [4,5-c]pyridin-5-yl)(5-(pyridin-2-yl)-1,3,4-oxadiazol-2-yl)methanone], the AC50 was 0.5 to 1 µM.

Regarding `CC1(c2nnc(N3CCc4[nH]cnc4[C@@H]3c3cc4c(C5CC5)cccn4n3)o2)CC1` [Example 2226, (R)-2-(4-(4-cyclopropylpyrazolo [1,5-a]pyridin-2-yl)-1,4,6,7-tetrahydro-5H-imidazo [4,5-c]pyridin-5-yl)-5-(1-methylcyclopropyl)-1,3,4-oxadiazole], the AC50 is more than 5 µM. On the same count and under the same terms, the value for `O=C(C1CCC1)N1CCc2[nH]cnc2[C@@H]1c1cc2c(F)cccn2n1` [Example 2081, (R)-cyclobutyl(4-(4-fluoropyrazolo[1,5-a]pyridin-2-yl)-1,4,6,7-tetrahydro-5H-imidazo[4,5-c]pyridin-5-yl)methanone] was more than 5 µM; that for `CC(C)c1cccn2nc([C@H]3c4nc[nH]c4CCN3c3nnc(C(C)(F)F)o3)cc12` [Example 2230, (R)-2-(1,1-difluoroethyl)-5-(4-(4-isopropylpyrazolo[1,5-a]pyridin-2-yl)-1,4,6,7-tetrahydro-5H-imidazo[4,5-c]pyridin-5-yl)-1,3,4-oxadiazole] was more than 5 µM. Same read-out and setting: the value for `CC(C)c1cccn2nc([C@@H]3c4nc[nH]c4CCN3c3nnc(C(F)(F)F)o3)cc12` [Example 2147, (S)-2-(4-(4-isopropylpyrazolo [1,5-a]pyridin-2-yl)-1,4,6,7-tetrahydro-5H-imidazo [4,5-c]pyridin-5-yl)-5-(trifluoromethyl)-1,3,4-oxadiazole] was less than 0.5 µM.

The values above are taken from patent US12673961B2 (Agios Pharmaceuticals, Inc., priority 2022, dated 2026).
